21 compounds from patent US8680159B2, “Bradykinin 1 receptor modulating compounds” (Gruenenthal GmbH, priority 2010, dated 2014) can be followed below.

Molecules are shown by their SMILES.

Test [1] has as its target T1, B1R receptor of the rat (CHO K1 cells stably transfected with the B1R gene of the rat) (Rattus norvegicus, UniProt P97583).
T1 construct: expressed in transfected cells; host or cells: CHO K1 cells (Chinese hamster ovary), stably transfected
T1 sequence (P97583 1-337): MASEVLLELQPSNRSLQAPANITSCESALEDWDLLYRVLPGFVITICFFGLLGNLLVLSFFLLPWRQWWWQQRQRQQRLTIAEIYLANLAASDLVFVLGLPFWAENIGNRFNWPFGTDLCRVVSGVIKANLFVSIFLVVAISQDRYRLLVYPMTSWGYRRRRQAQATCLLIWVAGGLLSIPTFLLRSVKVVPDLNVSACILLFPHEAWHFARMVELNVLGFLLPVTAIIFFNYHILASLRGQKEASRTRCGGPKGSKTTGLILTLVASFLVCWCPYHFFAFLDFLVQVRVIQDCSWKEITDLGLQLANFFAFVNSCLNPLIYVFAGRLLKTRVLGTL
Briefly: Functional study on the bradykinin receptor 1 (B1R), Ca2+ fluorescence (Fluo-4) FLIPR/Novostar assay, rB1R cells. The format is cell-based. The settings on record: for inhibition at 10 µM: CHO-K1, 10 μM, read-out: % Inhibition (r-B1R) at 10 μM. Put shortly:
(§1)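 Stably transfected CHO K1 cells carrying human or rat B1R were Fluo-4 loaded and Ca2+ fluorescence read by FLIPR or Novostar. Compounds were added first at 10 μM for % activation, then the EC80 agonist was applied after 6-20 min (human: Lys-Des-Arg9-bradykinin; rat: Des-Arg9-bradykinin). % inhibition is relative to maximum achievable inhibition, and IC50 comes from concentration series.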

The target of test [2] is T2, human B1R receptor (CHO K1 cells stably transfected with the human B1R gene) (Homo sapiens, UniProt P46663).
T2 construct: expressed in transfected cells; host or cells: CHO K1 cells (Chinese hamster ovary), stably transfected
T2 sequence (P46663 1-353): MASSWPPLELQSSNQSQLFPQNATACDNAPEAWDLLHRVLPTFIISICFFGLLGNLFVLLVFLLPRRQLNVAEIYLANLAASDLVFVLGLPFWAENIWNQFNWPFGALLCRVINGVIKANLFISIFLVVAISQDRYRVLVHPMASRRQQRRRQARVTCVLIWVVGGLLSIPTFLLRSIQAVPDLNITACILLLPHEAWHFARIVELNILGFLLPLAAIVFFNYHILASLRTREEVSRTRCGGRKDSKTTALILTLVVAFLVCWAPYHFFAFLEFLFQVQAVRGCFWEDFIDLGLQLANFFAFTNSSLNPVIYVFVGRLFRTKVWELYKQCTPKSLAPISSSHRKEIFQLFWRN
Briefly: Functional study on the bradykinin receptor 1 (B1R), Ca2+ fluorescence (Fluo-4) FLIPR/Novostar assay, hB1R cells. In kind it is cell-based. The settings on record: CHO-K1, read-out: % Inhibition (h-B1R) at 10 μM. In short, it runs like this:
as §1

As to `CN(C(=O)c1ccc2c(c1)C(NC(=O)c1sccc1Cl)CCC2)C1CCN(c2ccncc2)CC1` (stereo not drawn) [CC_H-07, 3-Chloro-N-[7-[methyl-(1-pyridin-4-yl-piperidin-4-yl)-carbamoyl]-1,2,3,4-tetrahydro-naphthalen-1-yl]-thiophene-2-carboxylic acid amide], the results for the inhibition at 10 µM in test [1] and in test [2] were 103% and 99%, respectively.
The corresponding values for `CN(C(=O)c1ccc2c(c1)C(NC(=O)c1cncnc1)CCC2)C1CCN(c2ccncc2)CC1` (stereo not drawn) [CC_H-08, N-[7-[Methyl-(1-pyridin-4-yl-piperidin-4-yl)-carbamoyl]-1,2,3,4-tetrahydro-naphthalen-1-yl]-pyrimidine-5-carboxylic acid amide] are 104% and 99%.
`Cc1cccc(C)c1C(=O)NC1CCCc2ccc(C(=O)N(C)C3CCN(c4ccncc4)CC3)cc21` (stereo not drawn) [CC_H-09, 8-[(2,6-Dimethyl-benzoyl)amino]-N-methyl-N-(1-pyridin-4-yl-piperidin-4-yl)-5,6,7,8-tetrahydro-naphthalene-2-carboxylic acid amide]: the inhibition at 10 µM in test [1] worked out at 103%; in test [2], 99%.
The corresponding values for `CN(C(=O)c1ccc2c(c1)C(NC(=O)c1c(Cl)cccc1C(F)(F)F)CCC2)C1CCN(c2ccncc2)CC1` (stereo not drawn) [CC_H-11, 8-[[2-Chloro-6-(trifluoromethyl)-benzoyl]amino]-N-methyl-N-(1-pyridin-4-yl-piperidin-4-yl)-5,6,7,8-tetrahydro-naphthalene-2-carboxylic acid amide] are 103% and 99%.
As for `CN(C(=O)c1ccc2c(c1)C(NC(=O)c1cnccc1C(F)(F)F)CC2(C)C)C1CCN(c2ccncc2)CC1` (stereo not drawn) [CC_H-12, N-[3,3-Dimethyl-6-[methyl-(1-pyridin-4-yl-piperidin-4-yl)-carbamoyl]-1,2-dihydro-inden-1-yl]-4-(trifluoromethyl)-pyridine-3-carboxylic acid amide], the inhibition at 10 µM in test [1] is 104%; in test [2], 100%.
The corresponding values for `CN(C(=O)c1ccc2c(c1)CCC2NC(=O)c1sccc1Cl)C1CCN(c2ccncc2)CC1` (stereo not drawn) [CC_H-13, 3-Chloro-N-[5-[methyl-(1-pyridin-4-yl-piperidin-4-yl)-carbamoyl]-2,3-dihydro-1H-inden-1-yl]-thiophene-2-carboxylic acid amide] are 78% and 100%.
The corresponding values for `CN(C(=O)c1ccc2c(c1)C(NC(=O)C1CCCCC1)CC2(C)C)C1CCN(c2ccncc2)CC1` (stereo not drawn) [CC_H-14, 3-(Cyclohexanecarbonylamino)-N,1,1-trimethyl-N-(1-pyridin-4-yl-piperidin-4-yl)-2,3-dihydro-indene-5-carboxylic acid amide] are 104% and 99%.
The corresponding values for `CN(C(=O)NC1CC(C)(C)c2ccc(C(=O)N(C)C3CCN(c4ccncc4)CC3)cc21)c1ccccc1Cl` (stereo not drawn) [CC_H-15, 3-[[(2-Chlorophenyl)-methyl-carbamoyl]amino]-N,1,1-trimethyl-N-(1-pyridin-4-yl-piperidin-4-yl)-2,3-dihydro-indene-5-carboxylic acid amide] are 101% and 99%.
On to `CN(C(=O)c1ccc2c(c1)C(NS(=O)(=O)c1c(Cl)cccc1C(F)(F)F)CCC2)C1CCN(c2ccncc2)CC1` (stereo not drawn) [CC_H-16, 8-[[[2-Chloro-6-(trifluoromethyl)-phenyl]sulfonyl]amino]-N-methyl-N-(1-pyridin-4-yl-piperidin-4-yl)-5,6,7,8-tetrahydro-naphthalene-2-carboxylic acid amide], for which the figures for the inhibition at 10 µM in test [1] and in test [2] were 104% and 99%, respectively.
Regarding `CN(C(=O)c1ccc2c(c1)C(NC(=O)c1c(Cl)cccc1C(F)(F)F)CC2(C)C)C1CCN(c2ccncc2)CC1` (stereo not drawn) [CC_H-17, 3-[[2-Chloro-6-(trifluoromethyl)-benzoyl]amino]-N,1,1-trimethyl-N-(1-pyridin-4-yl-piperidin-4-yl)-2,3-dihydro-indene-5-carboxylic acid amide], the “% Inhibition (r-B1R) at 10 μM” value in test [1] stood at 104%. In addition, in test [2], the inhibition at 10 µM is 98%.
In the case of `CN(C(=O)c1ccc2c(c1)C(NC(=O)CCC1CCCC1)CC2(C)C)C1CCN(c2ccncc2)CC1` (stereo not drawn) [CC_H-18, 3-(3-Cyclopentyl-propanoylamino)-N,1,1-trimethyl-N-(1-pyridin-4-yl-piperidin-4-yl)-2,3-dihydro-indene-5-carboxylic acid amide], the inhibition at 10 µM in test [1] was found to be 102%; in test [2] it was 99%.
For `CN(C(=O)c1ccc2c(c1)C(NC(=O)c1cccc(Cl)c1Cl)CC2(C)C)C1CCN(c2ccncc2)CC1` (stereo not drawn) [CC_H-19, 3-[(2,3-Dichloro-benzoyl)amino]-N,1,1-trimethyl-N-(1-pyridin-4-yl-piperidin-4-yl)-2,3-dihydro-indene-5-carboxylic acid amide], in that order: 100% and 100%.
For `CN(C(=O)c1ccc2c(c1)C(NC(=O)c1sccc1Cl)CC2(C)C)C1CCN(c2ccncc2)CC1` (stereo not drawn) [CC_H-20, 3-Chloro-N-[3,3-dimethyl-6-[methyl-(1-pyridin-4-yl-piperidin-4-yl)-carbamoyl]-1,2-dihydro-inden-1-yl]-thiophene-2-carboxylic acid amide], in that order: 104% and 99%.
In the case of `CN(C(=O)c1ccc2c(c1)C(NC(=O)c1cc(F)ccc1Cl)CC2(C)C)C1CCN(c2ccncc2)CC1` (stereo not drawn) [CC_H-21, 3-[(2-Chloro-5-fluoro-benzoyl)amino]-N,1,1-trimethyl-N-(1-pyridin-4-yl-piperidin-4-yl)-2,3-dihydro-indene-5-carboxylic acid amide], in test [1], the “% Inhibition (r-B1R) at 10 μM” value was determined as 104%. In test [2], the inhibition at 10 µM was 99%.
For `CN(C(=O)c1ccc2c(c1)C(NC(=O)c1cncnc1)CC2(C)C)C1CCN(c2ccncc2)CC1` (stereo not drawn) [CC_H-22, N-[3,3-Dimethyl-6-[methyl-(1-pyridin-4-yl-piperidin-4-yl)-carbamoyl]-1,2-dihydro-inden-1-yl]-pyrimidine-5-carboxylic acid amide], the inhibition at 10 µM was 90% in test [1] and 97% in test [2].
The corresponding values for `CN(C(=O)c1ccc2c(c1)C(NC(=O)c1ccccc1Cl)CC2(C)C)C1CCN(c2ccncc2)CC1` (stereo not drawn) [CC_H-23, 3-[(2-Chloro-benzoyl)amino]-N,1,1-trimethyl-N-(1-pyridin-4-yl-piperidin-4-yl)-2,3-dihydro-indene-5-carboxylic acid amide] are 104% and 99%.
As for `CN(C(=O)c1ccc2c(c1)C(NC(=O)c1ccccc1Cl)CC2)C1CCN(c2ccncc2)CC1` (stereo not drawn) [CC_H-24, 3-[(2-Chloro-benzoyl)amino]-N-methyl-N-(1-pyridin-4-yl-piperidin-4-yl)-2,3-dihydro-1H-indene-5-carboxylic acid amide], the values for the inhibition at 10 µM in test [1] and in test [2] were 105% and 100%, respectively.
For `CN(C(=O)c1ccc2c(c1)C(N(C)C(=O)c1cccc(Cl)c1Cl)CC2)C1CCN(c2ccncc2)CC1` (stereo not drawn) [CC_H-25, 3-[(2,3-Dichloro-benzoyl)-methyl-amino]-N-methyl-N-(1-pyridin-4-yl-piperidin-4-yl)-2,3-dihydro-1H-indene-5-carboxylic acid amide], in that order: 104% and 98%.
Consider `CN(C(=O)c1ccc2c(c1)C(NC(=O)c1cc(F)ccc1Cl)CC2)C1CCN(c2ccncc2)CC1` (stereo not drawn) [CC_H-26, 3-[(2-Chloro-5-fluoro-benzoyl)amino]-N-methyl-N-(1-pyridin-4-yl-piperidin-4-yl)-2,3-dihydro-1H-indene-5-carboxylic acid amide], for which the “% Inhibition (r-B1R) at 10 μM” value in test [1] turned out to be 103%. Further, the inhibition at 10 µM in test [2] was found to be 100%.
The corresponding values for `CN(C(=O)c1ccc2c(c1)C(N(C)C(=O)c1cc(F)ccc1Cl)CC2)C1CCN(c2ccncc2)CC1` (stereo not drawn) [CC_H-27, 3-[(2-Chloro-5-fluoro-benzoyl)-methyl-amino]-N-methyl-N-(1-pyridin-4-yl-piperidin-4-yl)-2,3-dihydro-1H-indene-5-carboxylic acid amide] are 104% and 100%.
On to `CC(C)CC(=O)N(C)C1CCc2ccc(C(=O)N(C)C3CCN(c4ccncc4)CC3)cc21` (stereo not drawn) [CC_H-28, N-Methyl-3-[methyl-(3-methyl-butanoyl)-amino]-N-(1-pyridin-4-yl-piperidin-4-yl)-2,3-dihydro-1H-indene-5-carboxylic acid amide], for which the inhibition at 10 µM was determined as 103% in test [1] and 99% in test [2].

Broadly, the inhibition is the relative decrease from the control value, in per cent.
